This passage reports IC50 results from US20240116910A1, “Heterocycles as WIP1 Inhibitors” (PMV Pharmaceuticals, Inc., priority 2022, published 2024).

For the assay, the target named is recombinant His-tag Wip1(2-420) protein (amino acids #2-420) (Homo sapiens (Human), UniProt O15297). The assay can be described thus: Wip1(2-420) phosphatase enzyme FDP assay. The class given is biochemical. The note with it: fluorescein diphosphate (FDP) substrate, RT 2 hours, fluorescence Ex485/Em535; read-out: WIP1 (Truncated 2-420) FDP Assay: IC50. The procedure:
The Human Wip1 (2-420, aa 2-420) or Wip1 full length (aa 1-605) DNA sequence was codon optimized and synthesized by Genscript for insect cell expression. The open reading frame of Wip1(2-420) with a N-terminal-His6 affinity tag followed by a TEV cleavage site was subcloned sites into the pFastBac1 expression vector. The recombinant bacmid DNA was transfected in Sf9 insect cells for baculovirus production. After 72 hours infection, the Sf9 cells were harvested by centrifugation and resuspended in lysis buffer containing 50 mM Tris/HCl, pH 8.0, 500 mM NaCl, 20% glycerol, Benzonase 0.5% CHAPS and Roche cOmplete™ EDTA free protease inhibitors. Cells were disrupted with microfluidizer and the debris was removed by centrifugation at 185,000 g for 1 hour. The supernatant was subjected to HisTrap FF for affinity purification. Proteins were eluted with a linear gradient of 0-500 mM imidazole in HisTrap buffer containing 50 mM Tris/HCl, pH 8.0, 500 mM NaCl and 20% glycerol, 0.05% CHAPS. The eluted protein was dialyzed against dialysis buffer (20 mM MES, 100 mM NaCl, 20% glycerol, 0.5 mM TCEP, 0.05% CHAPS) followed purification via HiTrap SP HP column. The protein was eluted with a gradient of 100 mM-2 M NaCl in dialysis buffer. His6-[…] was finally concentrated and loaded onto a size-exclusion column (NiLoad 16/600 Superdex 200 pg, GE Healthcare) pre-equilibrated with 50 mM MOPS (pH 7.5), 200 mM NaCl, 20% glycerol, 1 mM TCEP, 0.05% CHAPS and 0.1 mM EGTA. The peak fractions containing purified Nis6-Wip1(2-420) were pooled and concentrated to 1.0 mg/mL and flash frozen at −80° C.
Wip1 Length and Wip1(2-420) Phosphatase Enzyme FDP Assays.
Test compounds (252 mM stock in DMSO) were diluted 3 folds in series in DMSO and 1.2 μl per well were added into 384-well polypropylene black plates (Nunc). Twelve μl per well of Assay Buffer (100 mM NaCl, 50 mM MOPS, pH 7.5, 0.8 mM CHAPS, 0.1 mM EGTA, 30 mM MgCl2, 0.3 mM TCEP, 0.2 mg/mL BSA) was added followed by […] per well of 50.4 nM recombinant His-tag Wip1 full length protein (amino acids #1-605) or recombinant His-tag Wip1(2-420) protein (amino acids #2-420) in Assay Buffer and the plate was incubated at RT (22° C.) for 5 min. Ten mM of fluorescein diphosphate (FDP) in DMSO was diluted to […] in Assay Buffer and […] per well was added to the plate and incubated at RT (22° C.) for 2 hours. […] per well of 64.1 mM EDTA in water were added to stop the enzyme reaction. The plate was centrifuged at 1,200 rpm (Eppendorf 5810R Plate centrifuge) for 1 minute and fluorescence intensity (Ex485/Em535) was measured on Perkin Elmer Victor Reader. EC50 values were calculated using either Prism (GraphPad) or ActivityBase software (IDBS), The IC50 results are provided in Table M.

Chain of recombinant His-tag Wip1(2-420) protein (amino acids #2-420) (O15297 2-420): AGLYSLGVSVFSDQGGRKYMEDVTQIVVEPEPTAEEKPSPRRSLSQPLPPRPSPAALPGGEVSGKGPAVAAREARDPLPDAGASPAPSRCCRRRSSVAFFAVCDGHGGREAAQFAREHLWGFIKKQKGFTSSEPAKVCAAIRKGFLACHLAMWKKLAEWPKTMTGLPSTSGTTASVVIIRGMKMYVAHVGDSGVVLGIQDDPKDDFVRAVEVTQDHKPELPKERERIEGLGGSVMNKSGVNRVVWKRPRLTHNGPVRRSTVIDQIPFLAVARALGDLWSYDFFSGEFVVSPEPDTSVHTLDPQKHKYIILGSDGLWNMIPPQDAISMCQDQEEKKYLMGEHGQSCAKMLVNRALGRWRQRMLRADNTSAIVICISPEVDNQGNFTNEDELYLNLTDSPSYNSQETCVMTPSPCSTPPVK

Turning to `C[C@H](c1ccc(C(=O)N[C@@H](CC2CCCC2)C(=O)NC23CC(C2)C3)s1)N(C)c1cncc(Cl)c1` [Compound 97, (2S)-N-{bicyclo[1.1.1]pentan-1-yl}-2-({5-[(1R)-1-[(5-chloropyridin-3-yl)(methyl)amino]ethyl]thiophen-2-yl}formamido)-3-cyclopentylpropanamide], the IC50 stood at 11 nM. For `Cc1ncc(Cl)cc1N[C@@H](C)c1ccc(C(=O)N[C@@H](CC2CCCC2)C(=O)Nc2cnn(C)c2)s1` [Compound 98, (2S)-2-({5-[(1S)-1-[(5-chloro-2-methylpyridin-3-yl)amino]ethyl]thiophen-2-yl}formamido)-3-cyclopentyl-N-(1-methyl-1H-pyrazol-4-yl)propanamide], the IC50 came out at 6 nM.

For `Cc1ncc(Cl)cc1N[C@@H](C)c1ccc(C(=O)N[C@@H](CC2CCCC2)C(=O)N[C@H]2C[C@@H](C)C2)s1` [Compound 99, (2S)-2-({5-[(1S)-1-[(5-chloro-2-methylpyridin-3-yl)amino]ethyl]thiophen-2-yl}formamido)-3-cyclopentyl-N-[(1r,3s)-3-methylcyclobutyl]propanamide], the concentration for half-maximal inhibition (IC50) stood at 7 nM. `COC(=O)c1ncc(Cl)cc1N[C@@H](C)c1ccc(C(=O)N[C@@H](CC2CCCC2)C(=O)NC2CC2)s1` [Compound 102, methyl 5-chloro-3-{[(1S)-1-(5-{[(1S)-2-cyclopentyl-1-(cyclopropylcarbamoyl)ethyl]carbamoyl}thiophen-2-yl)ethyl]amino}pyridine-2-carboxylate]: the IC50 was found to be 10 nM. As for `COC(=O)c1ncc(Cl)cc1N[C@H](C)c1ccc(C(=O)N[C@@H](CC2CCCC2)C(=O)NC2CC2)s1` [Compound 103, methyl 5-chloro-3-{[(1R)-1-(5-{[(1S)-2-cyclopentyl-1-(cyclopropylcarbamoyl)ethyl]carbamoyl}thiophen-2-yl)ethyl]amino}pyridine-2-carboxylate], the figure is 520 nM; as for `Cc1ncc(Cl)cc1N[C@@H](C)c1ccc(C(=O)N[C@@H](CC2CCCC2)C(=O)NC2CC3(CCC3)C2)s1` [Compound 104, (2S)-2-({5-[(1S)-1-[(5-chloro-2-methylpyridin-3-yl)amino]ethyl]thiophen-2-yl}formamido)-3-cyclopentyl-N-{spiro[3.3]heptan-2-yl}propanamide], 6 nM; as for `C[C@H](Nc1cc(Cl)cnc1CO)c1ccc(C(=O)N[C@@H](CC2CCCC2)C(=O)NC2CC2)s1` [Compound 105, (2S)-2-({5-[(1S)-1-{[5-chloro-2-(hydroxymethyl)129yridine-3-yl]amino}ethyl]thiophen-2-yl}formamido)-3-cyclopentyl-N-cyclopropylpropanamide], 18 nM.

As for `C[C@@H](Nc1cc(Cl)cnc1CO)c1ccc(C(=O)N[C@@H](CC2CCCC2)C(=O)NC2CC2)s1` [Compound 106, (2S)-2-({5-[(1R)-1-{[5-chloro-2-(hydroxymethyl)129yridine-3-yl]amino}ethyl]thiophen-2-yl}formamido)-3-cyclopentyl-N-cyclopropylpropanamide], the 50% inhibitory concentration (IC50) is 472 nM. In the case of `Cc1ncc(Cl)cc1N[C@@H](C)c1ccc(C(=O)N[C@@H](CC2CCCCC2)C(=O)NC2CC2)s1` [Compound 107, (2S)-2-({5-[(1S)-1-[(5-chloro-2-methylpyridin-3-yl)amino]ethyl]thiophen-2-yl}formamido)-3-cyclohexyl-N-cyclopropylpropanamide], the IC50 came out at 4 nM. Consider `Cc1ncc(Cl)cc1N[C@@H](C)c1ccc(C(=O)N[C@@H](CC2CCCCC2)C(=O)N[C@H]2C[C@H](F)C2)s1` [Compound 108, (2S)-2-({5-[(1S)-1-[(5-chloro-2-methylpyridin-3-yl)amino]ethyl]thiophen-2-yl}formamido)-3-cyclohexyl-N-[(1r,3r)-3-fluorocyclobutyl]propanamide], for which the IC50 came to 5 nM. For `Cc1ncc(Cl)cc1N[C@@H](C)c1ccc(C(=O)N[C@@H](CC2CCCCC2)C(=O)NC23CC(C2)C3)s1` [Compound 109, (2S)-N-{bicyclo[1.1.1]pentan-1-yl}-2-({5-[(1S)-1-[(5-chloro-2-methylpyridin-3-yl)amino]ethyl]thiophen-2-yl}formamido)-3-cyclohexylpropanamide], the IC50 worked out at 8 nM.

Take `Cc1ncc(Cl)cc1N[C@@H](C)c1ccc(C(=O)N[C@@H](CC2CCC3CC32)C(=O)NC23CC(C2)C3)s1` (stereo partly drawn) [Compound 110, (2S)-N-{bicyclo[1.1.1]pentan-1-yl}-3-{bicyclo[3.1.0]hexan-2-yl}-2-({5-[(1S)-1-[(5-chloro-2-methylpyridin-3-yl)amino]ethyl]thiophen-2-yl}formamido)propanamide]: the IC50 was 6 nM. On to `Cc1ncc(Cl)cc1N[C@@H](C)c1ccc(C(=O)N[C@@H](CC2CCC3CC32)C(=O)NC23CC(C#N)(C2)C3)s1` (stereo partly drawn) [Compound 111, (2S)-3-{bicyclo[3.1.0]hexan-2-yl}-2-({5-[(1S)-1-[(5-chloro-2-methylpyridin-3-yl)amino]ethyl]thiophen-2-yl}formamido)-N-{3-cyanobicyclo[1.1.1]pentan-1-yl}propanamide], for which the IC50 was found to be 12 nM.

In the case of `Cc1ncc(Cl)cc1N[C@@H](C)c1ccc(C(=O)N[C@@H](CC2CCCCC2)C(=O)Nc2ccc(F)cc2)s1` [Compound 112, (2S)-2-({5-[(1S)-1-[(5-chloro-2-methylpyridin-3-yl)amino]ethyl]thiophen-2-yl}formamido)-3-cyclohexyl-N-(4-fluorophenyl)propanamide], the IC50 worked out at 4 nM. Take `Cc1ncc(Cl)cc1N[C@@H](C)c1ccc(C(=O)N[C@@H](CC2CCCC2)C(=O)NC23COC(C2)C3)s1` [Compound 113, (2S)-2-({5-[(1S)-1-[(5-chloro-2-methylpyridin-3-yl)amino]ethyl]thiophen-2-yl}formamido)-3-cyclopentyl-N-{2-oxabicyclo[2.1.1]hexan-4-yl}propanamide]: the IC50 was 11 nM. As for `Cc1ncc(Cl)cc1N[C@@H](C)c1ccc(C(=O)N[C@@H](CC2CCCC2)C(=O)N[C@H]2C[C@H](C)C2)s1` [Compound 114, (2S)-2-({5-[(1S)-1-[(5-chloro-2-methylpyridin-3-yl)amino]ethyl]thiophen-2-yl}formamido)-3-cyclopentyl-N-[(1s,3r)-3-methylcyclobutyl]propanamide], the IC50 stood at 6 nM. Regarding `Cc1ncc(Cl)cc1N[C@@H](C)c1ccc(C(=O)N[C@@H](CC2CCCC2)C(=O)NC2CCC(C#N)C2)s1` (stereo partly drawn) [Compound 115, (2S)-2-({5-[(1S)-1-[(5-chloro-2-methylpyridin-3-yl)amino]ethyl]thiophen-2-yl}formamido)-N-(3-cyanocyclopentyl)-3-cyclopentylpropanamide], the IC50 worked out at 11 nM.

Turning to `Cc1ncc(Cl)cc1N[C@@H](C)c1ccc(C(=O)N[C@@H](CC2CCC3CC32)C(=O)N[C@H]2C[C@H](F)C2)s1` (stereo partly drawn) [Compound 116, (2S)-3-{bicyclo[3.1.0]hexan-2-yl}-2-({5-[(1S)-1-[(5-chloro-2-methylpyridin-3-yl)amino]ethyl]thiophen-2-yl}formamido)-N-[(1r,3r)-3-fluorocyclobutyl]propanamide], the IC50 worked out at 10 nM.

As to `C[C@H](Nc1cccc(Cl)c1)c1ncc(C(=O)N[C@@H](CC2CCCC2)C(=O)NC2CC2)s1` [Compound 124, (2S)-2-({2-[(1S)-1-[(3-chlorophenyl)amino]ethyl]-1,3-thiazol-5-yl}formamido)-3-cyclopentyl-N-cyclopropylpropanamide], the 50% inhibitory concentration (IC50) was 905 nM. Regarding `Cc1ncc(Cl)cc1N[C@H](C)c1ncc(C(=O)N[C@@H](CC2CCCC2)C(=O)NC23CC(C2)C3)s1` [Compound 126, (2S)-N-{bicyclo[1.1.1]pentan-1-yl}-2-({2-[(1R)-1-[(5-chloro-2-methylpyridin-3-yl)amino]ethyl]-1,3-thiazol-5-yl}formamido)-3-cyclopentylpropanamide], the IC50 was found to be 1020 nM.
